According to PubChem BioAssay AID179 (DTP/NCI, 2004):
Activity calls are given as the source filed them.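 Rule for the calls: active = compounds giving half or more protection of infected cells from virus-caused growth loss, again on retest; inactive = the rest.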

Test system: CEM cells HIV-1 protection, formazan growth assay
Experiment: NCI AIDS Antiviral Assay
Conditions: for IC50: measured here: growth of uninfected CEM cells
Method in brief: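 Human CEM cells, uninfected and HIV-1-infected, received five drug concentrations, and growth was read by soluble formazan assay. Compounds giving at least 50% protection were retested; reproducible 100% protection defined confirmed active.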

Compound	EC50 [µM]	IC50 [µM]	outcome
C[n+]1c2ccccc2n2c3ccccc3c(NCCCn3ccnc3)c(C#N)c21	> 20	1.1	
OCC1(CO)CCC1(CO)CO			inactive
CNCCSSCCN	> 200	> 200	
NC(=O)CNC(=O)c1ccccc1SC(=O)CC[n+]1ccccc1	> 200	102	
CC(=O)c1c(-c2ccccc2)c(-c2ccc(OCCN(C)C)cc2)n2ccccc12	> 200	7.59	
Cc1cc(C)cc(-n2c3nc(=O)n(C)c(=O)c-3nc3ccccc32)c1			inactive
CC1CCC(C(C)C)C(O[C@@H]2OC(=O)C[C@@H]2Sc2ccccc2)C1 (stereo partly drawn)			inactive
CNC(=O)O/N=C1\N(C)CN(c2ccccc2)C12CCN(CCCC(=O)c1ccc(F)cc1)CC2	> 200	105	
O=C1NN=C2CCCCCCC12Cl (stereo not drawn)	> 1050	158	
CC(=O)[O-].COc1cccc(/C=N\[N-]C(=O)c2ccncc2)c1.[Cu+2].[OH3+].[OH3+].c1cnc2c(c1)ccc1cccnc12	> 200	61.7	
CC[n+]1c(/C=C/c2ccc(N(CCCl)CCCl)cc2)ccc2cc(I)ccc21			inactive
O=C1c2ccccc2N(O)C1(c1ccccc1)C1CCCC=C1N1CCOCC1 (stereo not drawn)			inactive
CC(=O)Oc1c2c(c(OC(C)=O)c3c1n(C(C)=O)c1ccccc1n3C(C)=O)n(C(C)=O)c1ccccc1n2C(C)=O	> 33.1	5.89	
[N-]=[N+]=NC1C2CC3C4CC5CC3[C@H](C2)C(C5)C41 (stereo partly drawn)	> 81.3	> 81.3	
Cn1c(=S)sc2nc3ccccc3n2c1=S	> 200	10.7	
CN(O)C(=O)Cc1ccccc1	> 15.1	> 15.1	
CCc1ccccc1N1C(=O)C(=O)C(c2nc3ccccc3s2)C(=O)C1=O	> 178	93.3	
Cc1cc2oc(=O)cc(C)c2c(=O)o1	> 200	> 200	
Nc1c(C(=O)Nc2ccc(C3=NCCN3)cc2)cccc1C(=O)Nc1ccc(C2=NCCN2)cc1	> 110	67.6	
O=C1C2C3SC(c4cc5ccccc5cc43)C2C(=O)N1c1ccccc1 (stereo not drawn)			inactive
CCc1cccc(C)c1N1C(=O)C(=O)C(c2nc3ccccc3o2)/C(=N/NC(=S)NN)C1=O (stereo not drawn)			inactive
COC1CCON1C(=O)c1ccccc1 (stereo not drawn)	> 200	> 200	

Compound	EC50 [µM]	IC50 [µM]	outcome
C=[N+]([O-])CCC1(O)C(CO[Si](C)(C)C(C)(C)C)OC(n2ccc(=O)[nH]c2=O)C1O[Si](C)(C)C(C)(C)C (stereo not drawn)	> 200	12	
COC(=O)[C@@]12CCCC(=O)[C@@H]1[C@H]1CCCC[C@H]12	> 200	110	
O=C(O)C1CSCN1C(=O)c1ccccc1SSc1ccccc1C(=O)N1CSCC1C(=O)O (stereo not drawn)	85.1	> 100	
O=C(NCCCN1CCN(CCCNC(=O)Nc2cc(Cl)ccc2Cl)CC1)Nc1cc(Cl)ccc1Cl	> 0.955	> 0.955	
CN(CCC#N)c1ccc(/C=C(\C#N)c2cccc(C(F)(F)F)c2)cc1	> 200	3.63	
Cn1nc(-c2ccccc2)c(C(=O)/C=C/c2ccccc2)c(N2CCCC2)c1=O	12.6	52.5	
COC(=O)[C@@H]1C=C[C@H](NC(C)=O)C1			inactive
C#CCN1C(=O)c2ccccc2S1(=O)=O	> 200	> 200	
COc1ccc(/C=C(\C#N)c2nc3ccccc3c(=O)[nH]2)cc1			active
COCCNC1CCC2(SCCS2)c2[nH]c3ccccc3c21 (stereo not drawn)	> 200	39.8	
N#Cc1cnn2c1n[n+]([O-])c1ccc(Cl)cc12	> 100	7.76	
CCCCCCCCCCCCC(N=[N+]=[N-])C(=O)OCC1OC(n2cc(C)c(=O)[nH]c2=O)CC1O (stereo not drawn)	> 20.4	> 20.4	
COc1ccc2c3c1OC1C(OC)(OC)CC4(C=C2)CN(C)CCC314 (stereo not drawn)			inactive
CCCN1CN(c2ccccc2)C2(CCN(CCCC(=O)c3ccc(F)cc3)CC2)C1=O	> 200	3.02	
CN1CCC2(CC1)SC[C@H]1C(=O)N(c3ccc(Cl)cc3)C(=O)N12	> 200	120	
CCOC(=O)C1SCCC1(C)O (stereo not drawn)			inactive
NC(=O)c1ncn2c1CNC(=O)C2	> 200	> 200	
Cn1c(=O)c2c3ccccc3n(C)c2n(C)c1=O	> 200	> 200	
CC(CC(=O)Nc1ccc(NC(=O)CC(C)N=NC(N)=S)cc1)N=NC(N)=S (stereo not drawn)	> 158	102	
C(=C(\C[P+](c1ccccc1)(c1ccccc1)c1ccccc1)c1ccccc1)/c1ccccc1	> 200	1	
CCN(CC)CCC12CC(C)OC1=Nc1ccccc1NC2=O (stereo not drawn)	> 200	> 200	
C/C(=N/NC(=S)Nc1ccccc1C)c1ccccn1	> 0.2	0.0692	

Compound	EC50 [µM]	IC50 [µM]	outcome
Cc1nn(C(=O)c2ccc(Cl)cc2)c2c1C(c1ccc(Cl)cc1)SC(N)=N2 (stereo not drawn)	> 200	36.3	
CCC[CH2][Sn]([CH2]CCC)([O]C(=O)C1CCC(=O)N1)[O]C(=O)C1CCC(=O)N1 (stereo not drawn)	> 38.9	0.0912	
O=C(CC(=O)n1nc(-c2ccccc2)c(N=Nc2ccccc2C(=O)O)c1-c1ccccc1)Nc1ccc(Cl)cc1	> 200	77.6	
CC1(C)CSCC(C)(C)C2(C=CC=CC=N2)C1=O (stereo not drawn)	> 191	26.3	
COC(=O)C(NC(=O)CNC(=O)CSc1nnc(COc2ccc(Cl)cc2)n1-c1ccccc1)C(C)C (stereo not drawn)	> 200	3.63	
CCCCn1c(-c2ccc(Cl)cc2)cs/c1=N\Nc1nc2c(c(=O)n(C)c(=O)n2C)n1C	> 33.1	11	
COC(=O)C1=C(C)NC2=C(C(=O)CCC2)C1CCSC (stereo not drawn)			inactive
Nc1nc(N)c2ncn(C3C=CC(CO)CC3)c2n1 (stereo not drawn)	> 200	> 200	
Nc1ccc(-c2nc3ccccc3s2)cc1S(=O)(=O)O	> 200	60.3	
CNc1ncnc2c1nc(NC1CCCC1)n2C1OC(CO)C(O)C1O (stereo not drawn)	> 200	> 200	
O=C1c2c(O)cccc2C(C(=O)CCCCCC(=O)C2c3cccc(O)c3C(=O)c3c(O)cccc32)c2cccc(O)c21	> 6.61	6.17	
Cc1cc(S(=O)(=O)N2CCNC2=O)c(S)cc1Cl	89.1	251	
COc1ccc(C(=O)/C=C/c2ccc(OCC(=N)N)cc2)cc1	> 200	9.77	
CC12C=C3CC(OC(=O)c4ccccc4)CCC3(O1)c1ccccc12 (stereo not drawn)	> 57.5	32.4	
COc1ccc2c(c1)CCC1=C2CCS1(=O)=O	> 200	> 200	
CC1=C(C(=O)Nc2cccc(Cl)c2)C(c2ccc([N+](=O)[O-])cc2)C(C(=O)Nc2cccc(Cl)c2)=C(C)N1	> 9.77	7.94	
O=C1CC(C(COCc2ccccc2)OCc2ccccc2)CC(=O)N1 (stereo not drawn)	> 200	> 200	
Cc1[nH]c2ccccc2c1C1Cc2ccccc2N1C(=O)/C(Cl)=C/c1ccccc1 (stereo not drawn)	> 6.61	> 6.61	
COc1cc(N=CN(C)C)c2ncccc2c1			inactive
CC1=CC(C(=O)O)P(C)(=O)C1 (stereo not drawn)			inactive
O=c1[nH]nc(Nc2ccc(Cl)cc2)c2nnn(C3CCCCC3)c12	> 200	> 200	
O=C(O)c1ccc(CS(=O)(=O)c2ccc(Cl)cc2)cc1	> 794	> 794	
